Measurements: ChEMBL document CHEMBL5465560, “Selectivity Literature for EUbOPEN Chemogenomic Library” (2024)

Columns and labels:
[1] = target: Histone-lysine N-methyltransferase, H3 lysine-36 specific (Homo sapiens) (UniProt Q96L73); experiment: Selectivity interaction (Methyltransferase screen (Scintillation proximity assays)) EUB0000255b NSD1; details: at 1 µM
[2] = target: 1-phosphatidylinositol 3-phosphate 5-kinase (Homo sapiens) (UniProt Q9Y2I7); experiment: Selectivity interaction (KinomeScan (DiscoverX)) EUB0000229b PIKFYVE; details: at 10 µM
[3] = target: T1, Aurora kinase A (Homo sapiens) (UniProt O14965); experiment: Selectivity interaction (Upstate Kinase Profiler service (Millipore)) EUB0000056c STK6; details: at 1 µM
T1 sequence (whole entry): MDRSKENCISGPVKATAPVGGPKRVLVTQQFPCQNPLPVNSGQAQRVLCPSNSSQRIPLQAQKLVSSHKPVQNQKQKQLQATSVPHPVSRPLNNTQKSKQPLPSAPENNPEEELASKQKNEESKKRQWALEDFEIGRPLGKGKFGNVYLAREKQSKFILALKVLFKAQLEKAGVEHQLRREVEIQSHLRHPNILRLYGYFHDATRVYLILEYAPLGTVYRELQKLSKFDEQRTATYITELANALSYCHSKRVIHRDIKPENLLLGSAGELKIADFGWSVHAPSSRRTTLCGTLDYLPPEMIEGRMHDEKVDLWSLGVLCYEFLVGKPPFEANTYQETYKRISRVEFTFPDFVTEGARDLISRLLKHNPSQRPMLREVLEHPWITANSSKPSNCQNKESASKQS

[4] = target: Proto-oncogene tyrosine-protein kinase receptor Ret (Homo sapiens, UniProt P07949)
[5] = target: Cyclin-dependent kinase 4 (Homo sapiens, UniProt P11802); experiment: Selectivity interaction (ActivX KiNativ screen (kinase selectivity in THP-1 cell lysates)) EUB0000639a CDK4; assay type: subcellular; details: lysate
Sequence of Cyclin-dependent kinase 4 (P11802 whole entry): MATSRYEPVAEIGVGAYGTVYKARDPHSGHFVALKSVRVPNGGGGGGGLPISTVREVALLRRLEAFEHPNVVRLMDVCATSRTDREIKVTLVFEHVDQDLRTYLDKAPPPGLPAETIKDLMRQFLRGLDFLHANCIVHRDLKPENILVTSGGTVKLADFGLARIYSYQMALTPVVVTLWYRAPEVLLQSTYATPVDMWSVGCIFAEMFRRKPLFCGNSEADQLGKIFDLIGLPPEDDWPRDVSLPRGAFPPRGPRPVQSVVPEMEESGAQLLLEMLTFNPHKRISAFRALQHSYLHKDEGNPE

[6] = target: Proto-oncogene tyrosine-protein kinase ROS (Homo sapiens) (UniProt P08922); experiment: Selectivity interaction (KinomeScan (DiscoverX)) EUB0001049a ROS1; details: at 1 µM
Sequence of Proto-oncogene tyrosine-protein kinase ROS (Homo sapiens) (P08922 whole entry): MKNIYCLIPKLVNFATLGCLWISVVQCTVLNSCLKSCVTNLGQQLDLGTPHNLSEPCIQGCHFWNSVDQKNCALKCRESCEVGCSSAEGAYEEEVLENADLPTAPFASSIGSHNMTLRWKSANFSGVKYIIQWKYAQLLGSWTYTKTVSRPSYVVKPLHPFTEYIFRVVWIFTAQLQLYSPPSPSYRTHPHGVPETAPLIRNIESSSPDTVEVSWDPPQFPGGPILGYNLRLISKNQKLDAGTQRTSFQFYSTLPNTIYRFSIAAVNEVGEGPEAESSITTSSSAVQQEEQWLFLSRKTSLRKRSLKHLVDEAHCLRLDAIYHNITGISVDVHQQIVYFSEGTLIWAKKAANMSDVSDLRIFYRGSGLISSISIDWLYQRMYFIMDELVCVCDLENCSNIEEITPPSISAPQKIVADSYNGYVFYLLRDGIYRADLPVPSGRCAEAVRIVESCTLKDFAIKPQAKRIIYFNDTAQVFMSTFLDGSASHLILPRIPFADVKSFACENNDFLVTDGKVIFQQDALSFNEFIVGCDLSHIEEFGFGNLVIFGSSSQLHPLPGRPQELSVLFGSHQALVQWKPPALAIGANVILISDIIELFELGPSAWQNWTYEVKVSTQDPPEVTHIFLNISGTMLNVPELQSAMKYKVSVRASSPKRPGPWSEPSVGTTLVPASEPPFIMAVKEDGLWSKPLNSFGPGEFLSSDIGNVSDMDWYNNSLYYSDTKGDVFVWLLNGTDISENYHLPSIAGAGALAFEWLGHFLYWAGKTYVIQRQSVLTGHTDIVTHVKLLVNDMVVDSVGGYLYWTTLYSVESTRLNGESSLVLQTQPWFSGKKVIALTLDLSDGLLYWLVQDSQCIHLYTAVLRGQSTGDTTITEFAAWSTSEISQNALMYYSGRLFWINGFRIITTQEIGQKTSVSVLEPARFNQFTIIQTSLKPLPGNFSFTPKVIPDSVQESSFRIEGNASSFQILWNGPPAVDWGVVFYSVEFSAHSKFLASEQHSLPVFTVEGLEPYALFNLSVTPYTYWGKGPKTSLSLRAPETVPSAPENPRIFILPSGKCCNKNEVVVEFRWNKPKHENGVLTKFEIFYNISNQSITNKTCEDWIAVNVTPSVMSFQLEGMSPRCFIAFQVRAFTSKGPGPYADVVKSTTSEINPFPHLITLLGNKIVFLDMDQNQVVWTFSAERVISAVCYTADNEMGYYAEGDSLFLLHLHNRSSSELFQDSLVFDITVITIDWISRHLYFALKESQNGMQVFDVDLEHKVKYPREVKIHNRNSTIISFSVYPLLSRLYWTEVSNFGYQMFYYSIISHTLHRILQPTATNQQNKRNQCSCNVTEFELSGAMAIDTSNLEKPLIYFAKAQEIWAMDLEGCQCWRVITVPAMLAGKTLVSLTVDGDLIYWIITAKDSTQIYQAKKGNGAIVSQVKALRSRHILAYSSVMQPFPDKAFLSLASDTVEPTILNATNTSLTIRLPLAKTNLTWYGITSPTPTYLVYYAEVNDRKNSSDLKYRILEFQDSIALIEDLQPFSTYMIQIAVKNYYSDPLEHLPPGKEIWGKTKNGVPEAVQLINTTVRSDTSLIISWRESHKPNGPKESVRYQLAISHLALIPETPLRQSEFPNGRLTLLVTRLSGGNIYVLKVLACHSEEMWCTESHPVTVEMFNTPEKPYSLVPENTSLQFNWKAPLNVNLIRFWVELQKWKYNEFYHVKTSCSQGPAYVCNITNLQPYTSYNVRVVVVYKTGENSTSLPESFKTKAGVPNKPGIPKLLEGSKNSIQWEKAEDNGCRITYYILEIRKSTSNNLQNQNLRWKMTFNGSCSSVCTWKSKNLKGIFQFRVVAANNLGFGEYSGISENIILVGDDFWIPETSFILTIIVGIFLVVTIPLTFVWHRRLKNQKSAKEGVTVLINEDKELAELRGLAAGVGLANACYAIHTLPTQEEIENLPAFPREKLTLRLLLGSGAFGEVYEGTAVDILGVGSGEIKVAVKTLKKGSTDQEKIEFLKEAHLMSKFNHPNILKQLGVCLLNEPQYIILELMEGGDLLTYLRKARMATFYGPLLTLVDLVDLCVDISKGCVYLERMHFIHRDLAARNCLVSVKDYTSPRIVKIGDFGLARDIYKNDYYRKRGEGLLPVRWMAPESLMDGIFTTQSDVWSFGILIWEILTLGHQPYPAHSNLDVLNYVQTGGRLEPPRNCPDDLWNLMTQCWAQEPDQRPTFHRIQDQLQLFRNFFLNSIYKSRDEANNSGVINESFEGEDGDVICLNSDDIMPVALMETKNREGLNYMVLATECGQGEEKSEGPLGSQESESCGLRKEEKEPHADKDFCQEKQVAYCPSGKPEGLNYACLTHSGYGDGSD

[7] = target: Wee1-like protein kinase (Homo sapiens) (UniProt P30291); experiment: Selectivity interaction (KinomeScan (DiscoverX)) EUB0001049a WEE1; details: at 1 µM
Sequence of Wee1-like protein kinase (Homo sapiens) (P30291 whole entry, looked up): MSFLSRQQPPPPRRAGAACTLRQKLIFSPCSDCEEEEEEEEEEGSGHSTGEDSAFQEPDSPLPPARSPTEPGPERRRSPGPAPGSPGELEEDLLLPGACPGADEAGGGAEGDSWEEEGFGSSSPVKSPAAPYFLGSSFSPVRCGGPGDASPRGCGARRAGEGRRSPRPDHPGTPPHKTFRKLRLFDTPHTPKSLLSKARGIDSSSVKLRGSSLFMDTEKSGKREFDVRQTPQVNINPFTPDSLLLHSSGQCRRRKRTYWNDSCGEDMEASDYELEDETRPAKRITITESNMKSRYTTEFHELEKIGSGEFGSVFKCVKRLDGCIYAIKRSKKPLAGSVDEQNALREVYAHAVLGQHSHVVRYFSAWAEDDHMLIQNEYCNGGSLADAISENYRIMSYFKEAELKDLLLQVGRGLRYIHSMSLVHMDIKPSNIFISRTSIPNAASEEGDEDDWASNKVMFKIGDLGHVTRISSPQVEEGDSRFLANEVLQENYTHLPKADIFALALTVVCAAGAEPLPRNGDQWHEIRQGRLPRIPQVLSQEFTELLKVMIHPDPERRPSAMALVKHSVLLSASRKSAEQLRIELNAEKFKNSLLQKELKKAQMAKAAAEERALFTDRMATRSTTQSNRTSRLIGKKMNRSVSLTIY

[8] = target: T2, Ephrin type-B receptor 2 (Homo sapiens) (UniProt P29323); experiment: Selectivity interaction (KinomeScan (DiscoverX)) EUB0001049a EPHB2; details: at 1 µM
T2 sequence (whole entry): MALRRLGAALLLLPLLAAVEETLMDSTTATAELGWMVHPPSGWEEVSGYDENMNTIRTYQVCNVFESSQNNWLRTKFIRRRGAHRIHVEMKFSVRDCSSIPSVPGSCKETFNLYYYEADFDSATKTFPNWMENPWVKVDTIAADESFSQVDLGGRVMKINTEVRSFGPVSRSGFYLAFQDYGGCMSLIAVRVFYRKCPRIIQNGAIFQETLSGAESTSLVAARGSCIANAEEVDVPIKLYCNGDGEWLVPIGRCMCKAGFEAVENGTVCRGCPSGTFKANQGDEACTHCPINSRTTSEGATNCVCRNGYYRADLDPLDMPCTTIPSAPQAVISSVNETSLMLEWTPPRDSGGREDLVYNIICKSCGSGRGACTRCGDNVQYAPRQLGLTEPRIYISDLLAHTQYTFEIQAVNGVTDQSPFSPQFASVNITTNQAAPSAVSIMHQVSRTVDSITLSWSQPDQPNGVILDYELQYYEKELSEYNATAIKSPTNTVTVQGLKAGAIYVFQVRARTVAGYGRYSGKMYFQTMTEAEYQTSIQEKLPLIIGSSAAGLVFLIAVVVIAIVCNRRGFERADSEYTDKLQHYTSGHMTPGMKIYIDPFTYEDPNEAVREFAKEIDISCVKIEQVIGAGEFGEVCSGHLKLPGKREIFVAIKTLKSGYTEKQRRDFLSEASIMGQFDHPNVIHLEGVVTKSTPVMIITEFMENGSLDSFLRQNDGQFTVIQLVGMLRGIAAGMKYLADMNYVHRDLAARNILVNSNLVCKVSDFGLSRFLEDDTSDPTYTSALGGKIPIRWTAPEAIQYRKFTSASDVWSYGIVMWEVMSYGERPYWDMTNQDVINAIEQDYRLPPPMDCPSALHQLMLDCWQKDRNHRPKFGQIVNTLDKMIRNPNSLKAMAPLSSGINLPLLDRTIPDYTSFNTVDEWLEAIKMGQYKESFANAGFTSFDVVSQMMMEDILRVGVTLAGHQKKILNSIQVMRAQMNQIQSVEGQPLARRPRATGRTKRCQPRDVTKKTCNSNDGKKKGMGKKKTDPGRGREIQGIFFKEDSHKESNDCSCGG

[9] = target: RAC-gamma serine/threonine-protein kinase (Homo sapiens, UniProt Q9Y243); experiment: Selectivity interaction (KinomeScan (DiscoverX)) EUB0000045b AKT3
Sequence of RAC-gamma serine/threonine-protein kinase (Q9Y243 whole entry): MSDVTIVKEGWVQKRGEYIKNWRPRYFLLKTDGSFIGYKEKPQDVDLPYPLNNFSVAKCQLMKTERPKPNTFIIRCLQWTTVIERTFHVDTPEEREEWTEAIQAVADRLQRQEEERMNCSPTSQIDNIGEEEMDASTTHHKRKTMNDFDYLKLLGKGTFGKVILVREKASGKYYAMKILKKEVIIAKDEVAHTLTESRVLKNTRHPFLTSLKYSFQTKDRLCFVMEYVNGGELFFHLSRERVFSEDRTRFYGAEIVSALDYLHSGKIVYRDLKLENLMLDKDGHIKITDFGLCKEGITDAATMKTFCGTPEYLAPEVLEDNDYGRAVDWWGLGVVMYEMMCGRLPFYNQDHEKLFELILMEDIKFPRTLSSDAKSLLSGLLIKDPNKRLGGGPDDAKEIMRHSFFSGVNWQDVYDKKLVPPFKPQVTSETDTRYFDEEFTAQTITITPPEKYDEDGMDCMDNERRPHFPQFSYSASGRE

[10] = target: Serine/threonine-protein kinase/endoribonuclease IRE1 (Homo sapiens) (UniProt O75460); experiment: Selectivity interaction (KinomeScan (DiscoverX)) EUB0000045b ERN1
Sequence of Serine/threonine-protein kinase/endoribonuclease IRE1 (Homo sapiens) (O75460 19-977 limits assumed): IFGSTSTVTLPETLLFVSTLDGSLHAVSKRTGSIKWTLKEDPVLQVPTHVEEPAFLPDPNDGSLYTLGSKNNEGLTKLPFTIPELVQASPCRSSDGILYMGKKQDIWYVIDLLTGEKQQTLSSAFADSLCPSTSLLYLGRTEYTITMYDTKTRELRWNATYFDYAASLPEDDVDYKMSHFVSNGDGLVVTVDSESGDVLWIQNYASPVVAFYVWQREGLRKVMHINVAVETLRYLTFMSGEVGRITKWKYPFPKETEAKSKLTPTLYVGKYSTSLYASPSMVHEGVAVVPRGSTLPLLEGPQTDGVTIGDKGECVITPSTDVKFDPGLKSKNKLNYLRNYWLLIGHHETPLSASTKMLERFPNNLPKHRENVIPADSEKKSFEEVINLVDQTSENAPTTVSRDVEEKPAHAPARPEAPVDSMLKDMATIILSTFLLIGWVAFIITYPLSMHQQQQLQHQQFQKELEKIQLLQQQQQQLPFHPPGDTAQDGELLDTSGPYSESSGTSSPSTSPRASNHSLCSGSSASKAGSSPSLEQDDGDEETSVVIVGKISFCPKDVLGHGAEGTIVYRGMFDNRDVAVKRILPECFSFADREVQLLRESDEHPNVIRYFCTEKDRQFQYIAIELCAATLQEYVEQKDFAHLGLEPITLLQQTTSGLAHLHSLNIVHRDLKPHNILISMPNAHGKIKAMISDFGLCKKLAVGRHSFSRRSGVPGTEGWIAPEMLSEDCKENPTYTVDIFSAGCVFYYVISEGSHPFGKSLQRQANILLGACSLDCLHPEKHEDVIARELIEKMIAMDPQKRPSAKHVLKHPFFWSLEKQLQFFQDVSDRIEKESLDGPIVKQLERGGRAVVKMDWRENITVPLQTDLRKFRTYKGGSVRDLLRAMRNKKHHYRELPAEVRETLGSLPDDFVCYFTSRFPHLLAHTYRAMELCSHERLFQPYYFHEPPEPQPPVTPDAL

[11] = target: Dual specificity tyrosine-phosphorylation-regulated kinase 1B (Homo sapiens, UniProt Q9Y463); experiment: Selectivity interaction (KinomeScan (DiscoverX)) EUB0000618a DYRK1B; details: at 10 µM
[12] = target: Homeodomain-interacting protein kinase 3 (Homo sapiens, UniProt Q9H422); experiment: Selectivity interaction (KinomeScan (DiscoverX)) EUB0000618a HIPK3; details: at 10 µM

## COCCN1CCC(c2cc(CN(C)C(=O)c3cccc(Oc4ccccc4)c3)ccn2)CC1
[1]
  % activity: 90%

## COc1cc(N(C)c2ccnc3ccc(C(F)(F)F)cc23)cc(OC)c1OC
[2]
  % binding: 46%

## Cc1ccc(-c2ccc3c(ccc4sc5c(c43)NC[C@@H](C)NC5=O)n2)cn1
[3]
  % of inhibition: 32%

## CCc1cccc(CC)c1NC(=O)c1nn(C)c2c1CCc1cnc(Nc3ccc(C(=O)NC4CCN(C)CC4)cc3OC(F)(F)F)nc1-2
[4]
  IC50: > 10 µM

## CC[C@@H]1[C@H](F)C(=O)N[C@@H]1COc1nccc2cc(C(N)=O)c(OC)cc12 [ZIMLOVISERTIB]
[5]; at 0.01 µM
  % of inhibition: -1.8%
[5]; at 0.04 µM
  % of inhibition: -3.4%
[5]; at 0.2 µM
  % of inhibition: -2.3%
[5]; at 1 µM
  % of inhibition: -9.6%
[5]; at 5 µM
  % of inhibition: -24.4%

## COc1cc(Nc2nc(C)cc(-c3cnn4nc(OC)ccc34)n2)cc(C(F)(F)F)c1
[6]
  % of control: 91%
[7]
  % of control: 95%
[8]
  % of control: 92%

## C=CC(=O)Nc1cc(-n2c(=O)ccc3cnc4ccc(-c5ccc(NS(C)(=O)=O)cc5)cc4c32)ccc1C
[9]; at 1 µM
  % of control: 75%
[9]; at 10 µM
  % of control: 100%
[10]; at 1 µM
  % of control: 100%
[10]; at 10 µM
  % of control: 99%

## O[C@H]1CC[C@H](Nc2ncc3nc(Nc4c(F)cc(F)cc4F)n([C@H]4CCOC4)c3n2)CC1
[11]
  % of control: 100%
[12]
  % of control: 95%
